Experimental data taken from publication PMC5650142, “GPR40 partial agonists and AgoPAMs: Differentiating effects on glucose and hormonal secretions in the rodent” (PLoS ONE, 2017).
Values joined by “and” are separate entries in the source; they are usually repeats but may differ in a detail not shown here. Identical values can stand only once. Like-named read-outs stand apart in the source and are kept apart here.

Tests used:
rat GPR40 = target: T1, rat GPR40 (Rattus norvegicus, UniProt Q8K3T4); experiment: Rat GPR40 IP1 accumulation assay; assay type: cell-based
T1 construct: expressed in transfected cells; host or cells: CHO-K1 (methods)
T1 sequence (Q8K3T4 whole entry): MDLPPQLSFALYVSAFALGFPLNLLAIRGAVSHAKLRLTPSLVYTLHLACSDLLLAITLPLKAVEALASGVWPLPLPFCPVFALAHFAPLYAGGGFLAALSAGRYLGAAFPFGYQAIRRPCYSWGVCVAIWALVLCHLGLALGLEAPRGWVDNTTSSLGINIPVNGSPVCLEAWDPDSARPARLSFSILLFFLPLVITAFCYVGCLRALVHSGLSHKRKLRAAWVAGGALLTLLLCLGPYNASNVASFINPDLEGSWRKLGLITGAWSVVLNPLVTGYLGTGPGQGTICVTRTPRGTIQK
Procedure: (§1) Stable cell lines expressing human GPR40 (hGPR40/HEK293), mouse GPR40 (mGPR40/CHO-K1), and rat GPR40 (rGPR40/CHO-K1) were cultured in DMEM media supplemented with 10% FBS, glutamine, non-essential amino acids, and penicillin/streptomycin. hGPR40/HEK293 & mGPR40/CHO-K1 cell media was supplemented with […] G418 (Life Technologies), while rGPR40/CHO-K1 cells were grown in […] blasticidin plus […] hygromycin (Life Technologies). Cell stocks were maintained and grown in a sub-confluent state using standard cell culture procedures. The day before the experiment, the cells were harvested with non-enzymatic cell dissociation buffer and re-suspended in DMEM supplemented with 10% FBS, glutamine, non-essential amino acids, penicillin/streptomycin at 0.15, 0.2 and 0.3 million cells per ml for human, mouse, and rat GPR40, respectively. […] The seeded plates were incubated overnight at 37 C.
(§2) On the day of the experiment, the growth media was removed from the assay by gently patting the assay plates on an absorbent sheet and 10 μl of IP1 stimulation buffer (Cis Bio IP-one Tb HTRF kit) supplemented with 50 mM LiCl is added to each well. Test compounds dissolved in DMSO were serially diluted in ½ log increments starting from 2 mM or 0.2 mM and 50 nl of the compound dilution was acoustically added to each well (final starting concentration 10 μM or 1 μM). Plates were then incubated for 60 minutes at room temperature and 10 μl of detection buffer (prepared as described in the Tb kit) is added to each well. The plates are then incubated one additional hour at room temperature. […] For each assay, a standard curve plate in which IP1 is titrated is also included. […] The percent activity at each concentration of test compound is determined using 0% activation (basal activity) determined in those wells that contain DMSO alone, while 100% activity is determined in wells that contained a concentration of a partial allosteric agonist know to activate GPR40. The % activity is then plotted versus the concentration of test compound and the dose response curve fitted to a standard 4-parameter non-linear regression model using a custom in-house developed software package (Merck & Co., Inc., MRL, Kenilworth, NJ, USA). Maximal % activity and EC50 are then determined for each test compound.

mouse GPR40 = target: T2, mouse GPR40 (Mus musculus, UniProt Q76JU9); experiment: Mouse GPR40 IP1 accumulation assay; assay type: cell-based
T2 construct: expressed in transfected cells; host or cells: CHO-K1 (methods)
T2 sequence (Q76JU9 whole entry): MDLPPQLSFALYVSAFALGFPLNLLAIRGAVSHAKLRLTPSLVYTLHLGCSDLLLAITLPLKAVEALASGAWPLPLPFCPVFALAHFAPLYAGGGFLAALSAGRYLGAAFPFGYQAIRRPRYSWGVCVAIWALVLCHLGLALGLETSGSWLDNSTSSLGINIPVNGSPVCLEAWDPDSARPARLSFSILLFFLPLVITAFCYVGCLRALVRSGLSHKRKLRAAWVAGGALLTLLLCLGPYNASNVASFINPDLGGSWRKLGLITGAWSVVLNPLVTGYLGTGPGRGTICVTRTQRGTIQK
Procedure: as §1, §2

human GPR40 [1] = target: T3, human GPR40 (Homo sapiens, UniProt O14842); experiment: Human GPR40 IP1 accumulation assay; assay type: cell-based; design: expressed in transfected cells
T3 sequence (O14842 whole entry): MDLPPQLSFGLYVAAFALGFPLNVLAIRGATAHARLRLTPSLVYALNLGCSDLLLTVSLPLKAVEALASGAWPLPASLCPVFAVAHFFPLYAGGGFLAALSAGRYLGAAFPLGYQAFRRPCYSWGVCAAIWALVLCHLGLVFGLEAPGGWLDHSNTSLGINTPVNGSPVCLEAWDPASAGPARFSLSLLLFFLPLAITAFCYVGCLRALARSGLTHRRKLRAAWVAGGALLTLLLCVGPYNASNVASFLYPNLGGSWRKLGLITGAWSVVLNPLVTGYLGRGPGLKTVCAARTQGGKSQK
Procedure: as §1, §2

human GPR40 [2] = target: T3, human GPR40; experiment: GPR40 binding assay, partial agonist tracer [3H]L358; design: expressed in transfected cells; host or cells: CHO / CHO-K1 cells, membrane preparation; conditions: radioligand L-001533358;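 on %Bound: 100% is tracer binding with DMSO alone and 0% is full displacement by a standard compound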
Procedure: Two small molecule tracers, the partial agonist [3H][…] and the AgoPAM [3H]25, are used to measure compound affinity at each site as described previously. Because of the allosteric coupling of the two sites and the nature of the assay, addition of a compound will either displace (binds to same site) or augment (binds to allosterically coupled site) radiotracer. Membranes expressing GPR40 were prepared from CHO cells stably expressing human GPR40. […] Sigma P8830) and were homogenized in 50 ml aliquots with a motor-driven glass Dounce homogenizer, 15 strokes at 1900 rpm on wet ice, repeating once. Homogenates were centrifuged at 2200 rpm for 10 min at 4°C. Supernatants were carefully removed and pooled. Homogenization and centrifugation were repeated until the debris pellet was translucent to maximize membrane recovery. Supernatants were then centrifuged at […] rpm for 20 min. at 4°C. […] Protein concentration was determined by Pierce BCA kit. […] The beads and membrane mixture is then vigorously mixed for 30 minutes at room temperature prior to addition to the assay. […] Next, 15 μl of the radioligand and 35 μl of the beads/membranes solution is added to each well. The assay plates are then sealed and incubated for 30 minutes at room temperature on an orbital shaker. The plates are allowed to settle for 16 hours and then counted on a TopCount scintillation counter (PE). […] Maximal % bound and IC50 are then determined for each test compound. 5 μg/well membrane together with 200 μg/well of PVT WGA SPA beads (GE #RPNG-0001) were suspended in a white 96 well plate with a final concentration of 50 μl/well in assay buffer (50 mM Tris, 10 mM MgCl2, and 2 mM EDTA). […] The plate is briefly mixed and incubated for 3-18 h at room temperature, before it is read on a MicroBeta plate counter (Perkin Elmer, MS, USA).

[3] = maximal % activity vs in-house partial agonist control

Rat GPR40 Receptor Activation (%) (rat GPR40; dose 1.50E-11 M): 7% | Rat GPR40 Receptor Activation (%) (rat GPR40; dose 1.55E-08 M): 588% | Rat GPR40 Receptor Activation (%) (rat GPR40; dose 2.43E-10 M): 161% | Rat GPR40 Receptor Activation (%) (rat GPR40; dose 2.49E-07 M): 616% | Rat GPR40 Receptor Activation (%) (rat GPR40; dose 3.89E-09 M): 549% | Rat GPR40 Receptor Activation (%) (rat GPR40; dose 4.00E-12 M): 0.25% | Rat GPR40 Receptor Activation (%) (rat GPR40; dose 6.10E-11 M): 52% | Rat GPR40 Receptor Activation (%) (rat GPR40; dose 6.22E-08 M): 567% | Rat GPR40 Receptor Activation (%) (rat GPR40; dose 9.72E-10 M): 357% | Rat GPR40 Receptor Activation (%) (rat GPR40; dose 9.95E-07 M): 567% | EC50 (rat GPR40; individual determinations, read-out: EC50 (nM), Rat GPR40, Functional Assay): 0.45 nM and 0.46 nM and 0.58 nM and 0.61 nM and 0.72 nM and 0.95 nM and 1.15 nM and 0.31 nM and 0.33 nM and 0.36 nM | Efficacy (% Activation), Rat (rat GPR40; [3]): (531%) | EC50 (rat GPR40; mean ± SD, n = 2–20, IP accumulation, read-out: Potency [EC50, nM] ± SD, Rat): 0.59 ± 0.28 nM | Mouse GPR40 Receptor Activation (%) (mouse GPR40; dose 1.50E-11 M): 13% | Mouse GPR40 Receptor Activation (%) (mouse GPR40; dose 1.55E-08 M): 531% | Mouse GPR40 Receptor Activation (%) (mouse GPR40; dose 2.43E-10 M): 207% | Mouse GPR40 Receptor Activation (%) (mouse GPR40; dose 2.49E-07 M): 540% | Mouse GPR40 Receptor Activation (%) (mouse GPR40; dose 3.89E-09 M): 508% | Mouse GPR40 Receptor Activation (%) (mouse GPR40; dose 4.00E-12 M): -3.79% | Mouse GPR40 Receptor Activation (%) (mouse GPR40; dose 6.10E-11 M): 72% | Mouse GPR40 Receptor Activation (%) (mouse GPR40; dose 6.22E-08 M): 489% | Mouse GPR40 Receptor Activation (%) (mouse GPR40; dose 9.72E-10 M): 327% | EC50 (mouse GPR40; individual determinations, read-out: EC50 (nM), Mouse GPR40, Functional Assay): 0.44 nM and 0.48 nM and 0.55 nM and 0.56 nM and 0.66 nM and 0.74 nM and 0.33 nM and 0.41 nM and 0.43 nM | Efficacy (% Activation), Mouse (mouse GPR40; [3]): (532%) | EC50 (mouse GPR40; mean ± SD, n = 2–20, IP accumulation, read-out: Potency [EC50, nM] ± SD, Mouse): 0.51 ± 0.12 nM | Human GPR40 Receptor Activation (%) (human GPR40 [1]; dose 1.50E-11 M): 35% | Human GPR40 Receptor Activation (%) (human GPR40 [1]; dose 1.55E-08 M): 357% | Human GPR40 Receptor Activation (%) (human GPR40 [1]; dose 2.43E-10 M): 231% | Human GPR40 Receptor Activation (%) (human GPR40 [1]; dose 2.49E-07 M): 381% | Human GPR40 Receptor Activation (%) (human GPR40 [1]; dose 3.89E-09 M): 357% | Human GPR40 Receptor Activation (%) (human GPR40 [1]; dose 4.00E-12 M): 5% | Human GPR40 Receptor Activation (%) (human GPR40 [1]; dose 6.10E-11 M): 154% | Human GPR40 Receptor Activation (%) (human GPR40 [1]; dose 6.22E-08 M): 356% | Human GPR40 Receptor Activation (%) (human GPR40 [1]; dose 9.72E-10 M): 323% | Human GPR40 Receptor Activation (%) (human GPR40 [1]; dose 9.95E-07 M): 404% | EC50 (human GPR40 [1]; individual determinations, read-out: EC50 (nM), HUMAN GPR40, Functional Assay): 0.13 nM and 0.14 nM and 0.18 nM and 0.19 nM and 0.22 nM and 0.08 nM and 0.09 nM and 0.12 nM | Efficacy (% Activation), Human (human GPR40 [1]; [3]): (359%) | EC50 (human GPR40 [1]; mean ± SD, n = 2–20, IP accumulation, read-out: Potency [EC50, nM] ± SD, Human): 0.15 ± 0.05 nM | % Bound Normalized to 100 (human GPR40 [2]; dose 0.318285 nM): 100.72% | %Bound (human GPR40 [2]; dose 0.318285 nM): 106.70% | % Bound Normalized to 100 (human GPR40 [2]; dose 1.00578 nM): 118.24% | %Bound (human GPR40 [2]; dose 1.00578 nM): 124.21% | % Bound Normalized to 100 (human GPR40 [2]; dose 3.17827 nM): 131.70% | %Bound (human GPR40 [2]; dose 3.17827 nM): 137.67% | % Bound Normalized to 100 (human GPR40 [2]; dose 10.0433 nM): 152.63% | %Bound (human GPR40 [2]; dose 10.0433 nM): 158.61% | % Bound Normalized to 100 (human GPR40 [2]; dose 31.7369 nM): 164.17% | %Bound (human GPR40 [2]; dose 31.7369 nM): 170.14% | % Bound Normalized to 100 (human GPR40 [2]; dose 100.289 nM): 171.43% | %Bound (human GPR40 [2]; dose 100.289 nM): 177.41% | % Bound Normalized to 100 (human GPR40 [2]; dose 316.912 nM): 183.61% | %Bound (human GPR40 [2]; dose 316.912 nM): 189.59% | % Bound Normalized to 100 (human GPR40 [2]; dose 1001.44 nM): 174.85% | %Bound (human GPR40 [2]; dose 1001.44 nM): 180.83% | % Bound Normalized to 100 (human GPR40 [2]; dose 3164.56 nM): 169.51% | %Bound (human GPR40 [2]; dose 3164.56 nM): 175.49% | % Bound Normalized to 100 (human GPR40 [2]; dose 10000 nM): 192.80% | %Bound (human GPR40 [2]; dose 10000 nM): 198.77%
SMILES: COc1ccc(F)c(-c2ccc([C@@H]3CCc4ccc([C@H](C5CC5)[C@H](C)C(=O)O)cc4O3)cc2)c1 [AP1]
%Act, Rat GPR40, Functional Assay (rat GPR40; individual determinations): 391% and 456% and 671% and 592% and 636% and 716% and 674% and 356% and 385% and 437% | %Act, Mouse GPR40, Functional Assay (mouse GPR40; individual determinations): 325% and 647% and 612% and 390% and 593% and 587% and 801% and 441% and 392% and 533% | %Act, HUMAN GPR40, Functional Assay (human GPR40 [1]; individual determinations): 254% and 368% and 338% and 409% and 464% and 275% and 405% and 364% and 355%
